# According to ChEMBL document CHEMBL1146668, “1,2-Benzothiazine 1,1-dioxide alpha-ketoamide analogues as potent calpain I inhibitors” (Bioorg Med Chem Lett, 2004):
# Assays:
# [1] = molecular target: T1, Calpain-1 catalytic subunit (Homo sapiens, UniProt P07384); experiment: In vitro inhibitory activity against recombinant human calpain 1
# T1 sequence (P07384 whole entry): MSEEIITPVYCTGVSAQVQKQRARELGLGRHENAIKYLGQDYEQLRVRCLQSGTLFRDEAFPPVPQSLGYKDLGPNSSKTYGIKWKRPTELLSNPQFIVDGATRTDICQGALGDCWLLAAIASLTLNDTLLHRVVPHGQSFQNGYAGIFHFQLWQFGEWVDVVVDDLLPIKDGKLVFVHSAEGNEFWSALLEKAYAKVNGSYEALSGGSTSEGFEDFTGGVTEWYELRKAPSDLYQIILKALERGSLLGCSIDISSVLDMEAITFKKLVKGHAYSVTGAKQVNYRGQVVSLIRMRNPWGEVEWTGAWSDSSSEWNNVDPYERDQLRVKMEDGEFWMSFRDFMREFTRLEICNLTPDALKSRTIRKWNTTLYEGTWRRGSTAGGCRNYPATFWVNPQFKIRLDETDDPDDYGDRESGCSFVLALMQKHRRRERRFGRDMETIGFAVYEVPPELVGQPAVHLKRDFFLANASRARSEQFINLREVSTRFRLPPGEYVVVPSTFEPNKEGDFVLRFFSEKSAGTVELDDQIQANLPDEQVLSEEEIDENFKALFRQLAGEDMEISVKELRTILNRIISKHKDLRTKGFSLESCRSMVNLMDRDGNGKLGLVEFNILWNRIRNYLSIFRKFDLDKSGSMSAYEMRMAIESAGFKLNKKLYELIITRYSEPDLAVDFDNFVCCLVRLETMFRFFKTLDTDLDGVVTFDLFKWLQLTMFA
# [2] = molecular target: T1, Calpain-1 catalytic subunit; experiment: In vitro inhibitory activity against human calpain 1 in Molt-4 cells (intact human T-cell leukemia cell line); type: cell-based
# Chymotrypsinogen B = Chymotrypsinogen B (Homo sapiens, UniProt P17538); experiment: Inhibitory activity against chymotrypsinogen; Range 1-10 uM
# Sequence of Chymotrypsinogen B (P17538 34-164 limits assumed, other chains not shown): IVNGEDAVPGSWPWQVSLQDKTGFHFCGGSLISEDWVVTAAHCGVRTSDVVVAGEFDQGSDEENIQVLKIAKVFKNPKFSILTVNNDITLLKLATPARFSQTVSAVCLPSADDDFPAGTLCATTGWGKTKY
# Sequence of Chymotrypsinogen B (P17538 167-263 limits assumed, other chains not shown): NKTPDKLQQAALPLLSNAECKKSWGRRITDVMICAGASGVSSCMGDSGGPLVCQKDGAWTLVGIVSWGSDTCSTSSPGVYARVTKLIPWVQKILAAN
# Cathepsin B [3] = molecular target: T2, Cathepsin B (Homo sapiens, UniProt P07858); experiment: Inhibitory activity against cathepsin B
# [4] = molecular target: T1, Calpain-1 catalytic subunit; experiment: In vitro inhibitory activity against human calpain I; Not determined
# Cathepsin B [5] = molecular target: T2, Cathepsin B; experiment: Inhibitory activity against cathepsin B; In active
SMILES,IC50 [1],further results
CCN1C(C(=O)N[C@@H](Cc2ccccc2)C(=O)C(=O)NCc2ccncc2)Cc2cc3c(cc2S1(=O)=O)OCCO3 (some centres undefined),240 nM,–
CCNC(=O)C(=O)[C@H](Cc1ccccc1)NC(=O)C1Cc2cc(Cl)ccc2S(=O)(=O)N1CC (some centres undefined),1000 nM,–
CCN1C(C(=O)N[C@@H](Cc2ccccc2)C(=O)C(=O)NC(C)C)Cc2cc3c(cc2S1(=O)=O)OCCO3 (some centres undefined),205 nM,–
CCN1C(C(=O)N[C@@H](Cc2ccccc2)C(=O)C(=O)NCCCNS(=O)(=O)c2ccccc2)Cc2cc3c(cc2S1(=O)=O)OCCO3 (some centres undefined),–,IC50 [2]: 2700 nM
CCN1C(C(=O)N[C@@H](Cc2ccccc2)C(=O)C(=O)NCCc2ccccc2)Cc2cc3c(cc2S1(=O)=O)OCCO3 (some centres undefined),63 nM,–
CCN1C(C(=O)N[C@@H](Cc2ccccc2)C(=O)C(=O)NCCNS(=O)(=O)c2ccc(-c3ccccn3)s2)Cc2cc3c(cc2S1(=O)=O)OCCO3 (some centres undefined),–,IC50 (Chymotrypsinogen B): > 10000 nM; IC50 (Cathepsin B [3]): Not Active; IC50 [2]: 1300 nM
CCN1C(C(=O)N[C@@H](Cc2ccccc2)C(=O)C(=O)NCCCn2ccnc2)Cc2cc3c(cc2S1(=O)=O)OCCO3 (some centres undefined),5000 nM,–
CCN1C(C(=O)N[C@@H](Cc2ccccc2)C(=O)C(=O)NCCCNS(=O)(=O)c2ccc([N+](=O)[O-])cc2)Cc2cc3c(cc2S1(=O)=O)OCCO3 (some centres undefined),–,IC50 [2]: 3600 nM
CCN1C(C(=O)N[C@@H](Cc2ccccc2)C(=O)C(=O)NCCOC)Cc2cc3c(cc2S1(=O)=O)OCCO3 (some centres undefined),200 nM,–
CCN1C(C(=O)N[C@@H](Cc2ccccc2)C(=O)C(=O)NCCNS(=O)(=O)c2ccc([N+](=O)[O-])cc2)Cc2cc3c(cc2S1(=O)=O)OCCO3 (some centres undefined),–,IC50 [2]: 4200 nM
CCN1C(C(=O)N[C@@H](Cc2ccccc2)C(=O)C(=O)NCCNS(=O)(=O)c2ccc(F)cc2)Cc2cc3c(cc2S1(=O)=O)OCCO3 (some centres undefined),–,IC50 [2]: 2000 nM
CCN1C(C(=O)N[C@H](C=O)Cc2ccccc2)Cc2cc(Cl)ccc2S1(=O)=O (some centres undefined),–,IC50 [4]: 5 nM
O=C[C@H](Cc1ccccc1)NC(=O)C1Cc2ccccc2S(=O)(=O)N1 (some centres undefined),7 nM,–
CCN1C(C(=O)N[C@@H](Cc2ccccc2)C(=O)C(=O)NCc2ccccn2)Cc2cc3c(cc2S1(=O)=O)OCCO3 (some centres undefined),170 nM,–
CCN1C(C(=O)N[C@@H](Cc2ccccc2)C(=O)C(=O)NCCCN2CCCC2=O)Cc2cc3c(cc2S1(=O)=O)OCCO3 (some centres undefined),500 nM,–
CCN1C(C(=O)N[C@@H](Cc2ccccc2)C(=O)C(=O)NCCCN2CCOCC2)Cc2cc3c(cc2S1(=O)=O)OCCO3 (some centres undefined),195 nM,–
C=CCNC(=O)C(=O)[C@H](Cc1ccccc1)NC(=O)C1Cc2cc3c(cc2S(=O)(=O)N1CC)OCCO3 (some centres undefined),200 nM,–
CCCCCNC(=O)C(=O)[C@H](Cc1ccccc1)NC(=O)C1Cc2cc3c(cc2S(=O)(=O)N1CC)OCCO3 (some centres undefined),150 nM,–
CCN1C(C(=O)N[C@@H](Cc2ccccc2)C(=O)C(=O)NCCCNS(=O)(=O)c2ccc(F)cc2)Cc2cc3c(cc2S1(=O)=O)OCCO3 (some centres undefined),–,IC50 [2]: 2400 nM
CCN1C(C(=O)N[C@@H](Cc2ccccc2)C(=O)C(=O)NCCNS(=O)(=O)c2ccccc2)Cc2cc3c(cc2S1(=O)=O)OCCO3 (some centres undefined),–,IC50 (Cathepsin B [5]): Not Active; IC50 (Chymotrypsinogen B): > 10000 nM; IC50 [2]: 5000 nM
CCN1C(C(=O)N[C@@H](Cc2ccccc2)C(=O)C(=O)OC)Cc2cc3c(cc2S1(=O)=O)OCCO3 (some centres undefined),1000 nM,–
"CCCCNC(=O)C(=O)[C@H](CC(C)C)NC(=O)C1Cc2cc3c(cc2S(=O)(=O)N1CC)OCCO3 (single isomer, unassigned; form 1)",500 nM,–
"CCCCNC(=O)C(=O)[C@H](CC(C)C)NC(=O)C1Cc2cc3c(cc2S(=O)(=O)N1CC)OCCO3 (single isomer, unassigned; form 2)",1000 nM,–
CCCCNC(=O)C(=O)[C@H](Cc1ccccc1)NC(=O)C1Cc2cc3c(cc2S(=O)(=O)N1CC)OCCO3 (stereo in doubt),–,IC50 (Cathepsin B [5]): Not Active; IC50 (Chymotrypsinogen B): > 10000 nM
